Experimental data as given in PubChem BioAssay AID1918937 (Molecular Pharmacology Branch, DTP, NCI, 2023).
pIC50: −log10 of the molar value.

Test system: 521955-158-R2-J5-PDC complex spheroid viability
Assay: Anticancer human tumor 521955-158-R2-J5-PDC patient-derived pancreatic carcinoma cell line growth inhibition
Conditions: for pIC50: curve of first compound; for viability, T/C: stronger effect = lower value
Method in brief: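 Multicellular complex spheroids of tumor cells with human endothelial cells (HUVEC) and mesenchymal stem cells; the LSD1 inhibitor iadademstat was combined with standard-of-care or investigational agents. Top concentration at or near clinical Cmax, half-log dilutions; final DMSO ≤0.25%.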

[1] = second compound 0.1 µM, first compound 0.00949 µM
[2] = second compound 0.1 µM, first compound 0.03 µM
[3] = second compound 0.1 µM, first compound 0.0949 µM
[4] = second compound 0.1 µM, first compound 0.3 µM
[5] = second compound 0.1 µM, first compound 0.949 µM
[6] = second compound 0.1 µM, first compound 3 µM
[7] = second compound 0.316 µM, first compound 0.00949 µM
[8] = second compound 0.316 µM, first compound 0.03 µM
[9] = second compound 0.316 µM, first compound 0.0949 µM
[10] = second compound 0.316 µM, first compound 0.3 µM
[11] = second compound 0.316 µM, first compound 0.949 µM
[12] = second compound 0.316 µM, first compound 3 µM
[13] = second compound 1 µM, first compound 0.00949 µM
[14] = second compound 1 µM, first compound 0.03 µM
[15] = second compound 1 µM, first compound 0.0949 µM
[16] = second compound 1 µM, first compound 0.3 µM
[17] = second compound 1 µM, first compound 0.949 µM
[18] = second compound 1 µM, first compound 3 µM
[19] = second compound 3.16 µM, first compound 0.00949 µM
[20] = second compound 3.16 µM, first compound 0.03 µM
[21] = second compound 3.16 µM, first compound 0.0949 µM
[22] = second compound 3.16 µM, first compound 0.3 µM
[23] = second compound 3.16 µM, first compound 0.949 µM
[24] = second compound 3.16 µM, first compound 3 µM
[25] = second compound 10 µM, first compound 0.00949 µM
[26] = second compound 10 µM, first compound 0.03 µM
[27] = second compound 10 µM, first compound 0.0949 µM
[28] = second compound 10 µM, first compound 0.3 µM
[29] = second compound 10 µM, first compound 0.949 µM
[30] = second compound 10 µM, first compound 3 µM
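Note: spheroids exposed to agents for seven days.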
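Throughout, for viability, T/C: percent of DMSO vehicle control luminescence viability.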

Work on `NS(=O)(=O)OCC1CC(n2ccc3c(NC4CCc5ccccc54)ncnc32)CC1O` (stereo not given) + NC1CC1c1ccc(-c2cccc(O)c2)cc1 yielded a pIC50 (second compound 0.1 µM) of 7.18, a pIC50 (second compound 0.316 µM) of 7.20 and a pIC50 (second compound 1 µM) of 7.28. For the same molecule, the pIC50 (second compound 3.16 µM) was 7.27, the pIC50 (second compound 10 µM) was 7.39 and the viability, T/C [1] was 96.4%. The viability, T/C [2] was 72.8%, the viability, T/C [3] was 38.5% and the viability, T/C [4] was 22.4%. For the same molecule, the viability, T/C [5] was 16.1%, the viability, T/C [6] was 11% and the viability, T/C [7] was 117%. It also gave a viability, T/C [8] of 71.1%, a viability, T/C [9] of 38.3% and a viability, T/C [10] of 21.7%. For the same molecule, the viability, T/C [11] was 17.4%, the viability, T/C [12] was 12.3% and the viability, T/C [13] was 111%. The viability, T/C [14] was 62.5%, the viability, T/C [15] was 37.6% and the viability, T/C [16] was 21.2%. For the same molecule, the viability, T/C [17] was 16.7%, the viability, T/C [18] was 11.5% and the viability, T/C [19] was 120%. It also gave a viability, T/C [20] of 63.6%, a viability, T/C [21] of 38.1% and a viability, T/C [22] of 21.3%. It also gave a viability, T/C [23] of 17.7%, a viability, T/C [24] of 14.1% and a viability, T/C [25] of 83.7%. It also gave a viability, T/C [26] of 54.5%, a viability, T/C [27] of 37.5% and a viability, T/C [28] of 23.9%. For the same molecule, the viability, T/C [29] was 21% and the viability, T/C [30] was 16%.
In the case of `Nc1ccccc1NC(=O)c1ccc(CNC(=O)OCc2cccnc2)cc1` + NC1CC1c1ccc(-c2cccc(O)c2)cc1, the pIC50 (second compound 0.1 µM) was 6.37, the pIC50 (second compound 0.316 µM) was 6.41 and the pIC50 (second compound 1 µM) was 6.35. It also gave a pIC50 (second compound 3.16 µM) of 6.34, a pIC50 (second compound 10 µM) of 6.39 and a viability, T/C [1] of 89.2%. For the same molecule, the viability, T/C [2] was 101%, the viability, T/C [3] was 83.6% and the viability, T/C [4] was 62.8%. For the same molecule, the viability, T/C [5] was 22.8%, the viability, T/C [6] was 0.44% and the viability, T/C [7] was 83.7%. The viability, T/C [8] was 88.8%, the viability, T/C [9] was 77.9% and the viability, T/C [10] was 59.9%. For the same molecule, the viability, T/C [11] was 19.9%, the viability, T/C [12] was 0.28% and the viability, T/C [13] was 90.4%. It also gave a viability, T/C [14] of 88.5%, a viability, T/C [15] of 77.1% and a viability, T/C [16] of 67.8%. It also gave a viability, T/C [17] of 19.9%, a viability, T/C [18] of 1.47% and a viability, T/C [19] of 84.2%. The viability, T/C [20] was 89.1%, the viability, T/C [21] was 82.9% and the viability, T/C [22] was 70%. The viability, T/C [23] was 14.2%, the viability, T/C [24] was 0.23% and the viability, T/C [25] was 90.3%. For the same molecule, the viability, T/C [26] was 85.1%, the viability, T/C [27] was 83.7% and the viability, T/C [28] was 65.3%. For the same molecule, the viability, T/C [29] was 5.98% and the viability, T/C [30] was 0.28%.
`O=C(C=Cc1cccc(S(=O)(=O)Nc2ccccc2)c1)NO` + NC1CC1c1ccc(-c2cccc(O)c2)cc1 gave a pIC50 (second compound 0.1 µM) of 6.34, a pIC50 (second compound 0.316 µM) of 6.36 and a pIC50 (second compound 1 µM) of 6.35. For the same molecule, the pIC50 (second compound 3.16 µM) was 6.46, the pIC50 (second compound 10 µM) was 6.45 and the viability, T/C [1] was 103%. It also gave a viability, T/C [2] of 113%, a viability, T/C [3] of 82.4% and a viability, T/C [4] of 62.8%. The viability, T/C [5] was 30.1%, the viability, T/C [6] was 0.42% and the viability, T/C [7] was 94.1%. For the same molecule, the viability, T/C [8] was 102%, the viability, T/C [9] was 91.1% and the viability, T/C [10] was 61.8%. It also gave a viability, T/C [11] of 23.8%, a viability, T/C [12] of 0.53% and a viability, T/C [13] of 97.7%. For the same molecule, the viability, T/C [14] was 107%, the viability, T/C [15] was 87.8% and the viability, T/C [16] was 65.8%. For the same molecule, the viability, T/C [17] was 22.1%, the viability, T/C [18] was 1.1% and the viability, T/C [19] was 112%. It also gave a viability, T/C [20] of 101%, a viability, T/C [21] of 89.1% and a viability, T/C [22] of 55.5%. For the same molecule, the viability, T/C [23] was 17.1%, the viability, T/C [24] was 0.23% and the viability, T/C [25] was 112%. For the same molecule, the viability, T/C [26] was 112%, the viability, T/C [27] was 83.7% and the viability, T/C [28] was 61%. For the same molecule, the viability, T/C [29] was 14.7% and the viability, T/C [30] was 0.31%.
